The results in this text go back to ChEMBL document CHEMBL3868615, “Decahydrobenzoquinolin-5-one sigma receptor ligands: Divergent development of both sigma 1 and sigma 2 receptor selective examples” (Bioorg Med Chem Lett, 2016).

The target of test [1] is T1, 5-hydroxytryptamine receptor 1A (Homo sapiens, UniProt P08908).
T1 sequence (P08908 whole entry): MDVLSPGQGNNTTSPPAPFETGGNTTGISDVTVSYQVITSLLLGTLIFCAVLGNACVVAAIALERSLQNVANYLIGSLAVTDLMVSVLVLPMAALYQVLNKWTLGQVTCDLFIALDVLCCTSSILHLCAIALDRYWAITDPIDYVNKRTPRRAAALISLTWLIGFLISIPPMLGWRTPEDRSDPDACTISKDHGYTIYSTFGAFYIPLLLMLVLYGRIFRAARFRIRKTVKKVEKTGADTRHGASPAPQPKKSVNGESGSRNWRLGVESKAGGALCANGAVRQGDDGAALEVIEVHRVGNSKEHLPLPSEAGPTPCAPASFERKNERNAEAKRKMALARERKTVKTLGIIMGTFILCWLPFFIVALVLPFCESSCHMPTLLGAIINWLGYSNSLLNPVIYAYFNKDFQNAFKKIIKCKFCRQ
In words: Displacement of [3H]Way100635 from human 5-HT1A receptor expressed in CHO cells measured after 90 mins by microbeta scintillation counting method. The format is cell-based.

Test [2] addresses Delta-type opioid receptor (Homo sapiens, UniProt P41143). In words: Displacement of [3H]DADLE from human DOR expressed in HEK cells measured after 90 mins by microbeta scintillation counting method. The test is classed as cell-based, HEK293. A general note: Loss of bound radioactivity is the signal in a displacement assay; it reports binding, not function.
In test [3] the target is Sigma non-opioid intracellular receptor 1 (Cavia porcellus, UniProt Q60492). As to the kind of experiment: Displacement of [3H]pentazocine from guinea pig sigma1 receptor measured after 90 mins by microbeta scintillation counting method.
Sigma non-opioid intracellular receptor 1, sequence (Q60492 whole entry): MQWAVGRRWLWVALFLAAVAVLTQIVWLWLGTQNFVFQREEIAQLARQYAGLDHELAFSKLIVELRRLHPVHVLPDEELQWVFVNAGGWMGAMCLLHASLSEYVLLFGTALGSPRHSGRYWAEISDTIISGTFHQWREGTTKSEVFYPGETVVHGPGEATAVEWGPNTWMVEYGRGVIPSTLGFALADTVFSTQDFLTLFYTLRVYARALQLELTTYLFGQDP
The next test concerns the target Mu-type opioid receptor (Homo sapiens, UniProt P35372). In words: Displacement of [3H]DAMGO from human MOR expressed in HEK cells after 90 mins by microbeta scintillation counting method. The test is classed as cell-based, HEK293.
In another test the test system is PC-12. In words: Selectivity ratio of Ki for sigma2 receptor in rat PC12 cells to Ki for guinea pig sigma1 receptor. The format is cell-based.
In test [4] the target is Kappa-type opioid receptor (Homo sapiens, UniProt P41145). In words: Displacement of [3H]U69593 from KOR (unknown origin) expressed in HEKT cells measured after 90 mins by microbeta scintillation counting method. The test is classed as cell-based.
Kappa-type opioid receptor, sequence (P41145 whole entry): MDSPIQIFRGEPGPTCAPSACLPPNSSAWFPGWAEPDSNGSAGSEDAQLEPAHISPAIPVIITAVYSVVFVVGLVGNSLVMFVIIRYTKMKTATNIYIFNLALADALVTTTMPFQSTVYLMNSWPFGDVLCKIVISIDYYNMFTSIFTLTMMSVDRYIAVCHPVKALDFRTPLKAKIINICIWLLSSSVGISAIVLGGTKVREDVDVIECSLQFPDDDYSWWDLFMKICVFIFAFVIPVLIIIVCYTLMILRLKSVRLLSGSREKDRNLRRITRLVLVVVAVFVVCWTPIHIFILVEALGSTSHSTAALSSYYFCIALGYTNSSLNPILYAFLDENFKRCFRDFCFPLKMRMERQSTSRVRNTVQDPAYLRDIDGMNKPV
The nature of test [5]: Displacement of [3H]DTG from sigma2 receptor in rat PC12 cells measured after 90 mins by microbeta scintillation counting method. The test is classed as cell-based. Particulars: pc-12.

Delta-type opioid receptor, sequence (P41143 whole entry): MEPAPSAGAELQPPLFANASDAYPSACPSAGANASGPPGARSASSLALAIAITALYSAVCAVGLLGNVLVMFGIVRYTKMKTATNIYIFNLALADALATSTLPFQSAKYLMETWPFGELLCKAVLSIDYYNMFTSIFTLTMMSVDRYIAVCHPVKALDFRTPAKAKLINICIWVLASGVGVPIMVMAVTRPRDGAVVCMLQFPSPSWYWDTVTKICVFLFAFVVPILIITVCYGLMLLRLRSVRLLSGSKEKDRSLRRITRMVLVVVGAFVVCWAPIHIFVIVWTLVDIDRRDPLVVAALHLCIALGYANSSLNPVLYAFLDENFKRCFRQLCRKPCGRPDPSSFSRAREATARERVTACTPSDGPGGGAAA
Mu-type opioid receptor, sequence (P35372 whole entry): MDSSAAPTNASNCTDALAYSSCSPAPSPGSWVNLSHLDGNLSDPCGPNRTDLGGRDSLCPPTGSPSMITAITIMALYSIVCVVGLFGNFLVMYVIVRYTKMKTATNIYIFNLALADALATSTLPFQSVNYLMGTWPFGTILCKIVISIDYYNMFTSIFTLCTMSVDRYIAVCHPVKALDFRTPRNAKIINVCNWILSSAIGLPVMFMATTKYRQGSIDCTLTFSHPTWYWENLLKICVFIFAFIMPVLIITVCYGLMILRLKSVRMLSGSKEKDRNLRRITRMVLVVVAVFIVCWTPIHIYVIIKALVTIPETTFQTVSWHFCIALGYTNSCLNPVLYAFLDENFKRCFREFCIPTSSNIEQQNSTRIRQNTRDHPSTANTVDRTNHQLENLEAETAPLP

As usually defined, the Ki is a dissociation constant, usually derived from enzyme kinetics or from competition with a known ligand. Higher therefore signals a looser hold on the target. In the case of `CCCN1CC[C@H]2CC(=O)[C@H](CC)[C@H]3CCC[C@@H]1[C@H]23`, the Ki in test [1] was 4.5 µM; in test [2], above 10 µM; in test [3], 0.011 to 0.012 µM; at Mu-type opioid receptor it was above 10 µM; in test [4], above 10 µM; in test [5] it was 0.23 to 0.401 µM. Moreover, the Ratio Ki in the test with PC-12 stood at 20.9.
